Active and inactive are the calls of the source. The rule behind the calls is not given here.
System: M. tuberculosis wild type plus biotin, growth inhibition
Assay: growth inhibition of wild-type M. tuberculosis, plus biotin, BioA project, dry powder (AID 743349)

Q: With `CN1c2ccc(-c3ccc(F)cc3)cc2[C@H]2[C@H](CCN2C(=O)Cc2ccccn2)[C@H]1CO` as the compound, how does the IC90 read?
A: Its IC90 is > 50 µM (inactive).

Q: `CNS(=O)(=O)c1ccc(N2CCN(C(=O)c3ccc4c(c3)OCO4)CC2)cc1` was tested. Which IC90 did it give?
A: Its IC90 is > 50 µM (inactive).

Q: How did the IC90 turn out when `CCCCCCCC(=O)N1CC[C@@H]2[C@@H](CO)N(C)c3ccc(-c4cccc(F)c4)cc3[C@@H]21` was run?
A: Its IC90 is > 50 µM (inactive).

Q: With `CC(C)NC(=O)N1CC[C@@H]2[C@@H](CO)N(C)c3ccc(-c4cccc(F)c4)cc3[C@@H]21` as the compound, how does the IC90 read?
A: Its IC90 is > 50 µM (inactive).

Q: Which IC90 does the source give for `CC(=O)c1ccc(NCCNC(=O)c2ccc3c(c2)OCO3)cc1` here?
A: Its IC90 is > 50 µM (inactive).

Q: How did the IC90 turn out when `COc1ccccc1C(=O)N1CCN(c2ccc(C(C)=O)cc2)CC1` was run?
A: The IC90 was > 50 µM (inactive).

Q: Which IC90 does the source give for `CC(C)NC(=O)N1CC[C@@H]2[C@@H](CO)N(C)c3ccc(-c4ccc(F)cc4)cc3[C@@H]21` here?
A: Its IC90 is > 50 µM (inactive).

Q: How did the IC90 turn out when `COc1ccccc1NC(=O)N1CC[C@@H]2[C@@H](CO)N(C)c3ccc(-c4ccc(F)cc4)cc3[C@@H]21` was run?
A: The IC90 was > 50 µM (inactive).

Q: How did the IC90 turn out when `CCC(=O)N1CC[C@@H]2[C@@H](CO)N(C)c3ccc(-c4ccc(F)cc4)cc3[C@@H]21` was run?
A: Its IC90 is > 50 µM (inactive).

Q: For `CN1c2ccc(-c3cccc(F)c3)cc2[C@@H]2[C@@H](CCN2C(=O)c2ccc3c(c2)OCO3)[C@H]1CO`, which IC90 is on record?
A: Its IC90 is > 50 µM (inactive).

Q: With `CN1c2ccc(-c3ccc(F)cc3)cc2[C@H]2[C@H](CCN2C(=O)Nc2cc(F)ccc2F)[C@H]1CO` as the compound, how does the IC90 read?
A: The IC90 was > 50 µM (inactive).

Q: How did the IC90 turn out when `CC(=O)c1ccc(N2CCN(C(=O)c3ccc4c(c3)OCO4)[C@H](C)C2)cc1` was run?
A: Its IC90 is > 50 µM (inactive).

Q: Which IC90 does the source give for `CN1c2ccc(-c3ccc(F)cc3)cc2[C@H]2[C@H](CCN2C(=O)Cc2cccnc2)[C@H]1CO` here?
A: Its IC90 is > 50 µM (inactive).

Q: For `CN(C)C(=O)c1ccc(N2CCN(C(=O)c3ccc4c(c3)OCO4)CC2)cc1`, which IC90 is on record?
A: Its IC90 is > 50 µM (inactive).

Q: With `CN1c2ccc(-c3cccc(F)c3)cc2[C@H]2[C@H](CCN2C(=O)CCCCCCC(=O)O)[C@H]1CO` as the compound, how does the IC90 read?
A: Its IC90 is > 50 µM (inactive).

Q: `CN1c2ccc(-c3cccc(F)c3)cc2[C@H]2[C@H](CCN2C(=O)CCCCCCN)[C@H]1CO` was tested. Which IC90 did it give?
A: The IC90 was > 50 µM (inactive).

Q: With `CN1c2ccc(-c3ccc(F)cc3)cc2[C@H]2[C@H](CCN2C(=O)Nc2ccc(F)cc2)[C@H]1CO` as the compound, how does the IC90 read?
A: The IC90 was > 50 µM (inactive).

Q: How did the IC90 turn out when `CCCNC(=O)N1CC[C@@H]2[C@@H](CO)N(C)c3ccc(-c4ccc(F)cc4)cc3[C@@H]21` was run?
A: Its IC90 is > 50 µM (inactive).

Q: How did the IC90 turn out when `CC(=O)c1ccc(N2CC3(CN(C(=O)c4ccc5c(c4)OCO5)C3)C2)cc1` was run?
A: The IC90 was > 50 µM (inactive).

Q: `CN1c2ccc(-c3cccc(F)c3)cc2[C@H]2[C@H](CCN2C(=O)Cc2ccccc2)[C@H]1CO` was tested. Which IC90 did it give?
A: Its IC90 is > 50 µM (inactive).

Q: Which IC90 does the source give for `CC(=O)c1ccc(N2CCN(C(=O)c3ccccc3Cl)CC2)cc1` here?
A: Its IC90 is > 50 µM (inactive).

Q: `CN1c2ccc(-c3cccc(F)c3)cc2[C@H]2[C@H](CCN2C(=O)Cc2cccnc2)[C@H]1CO` was tested. Which IC90 did it give?
A: Its IC90 is > 50 µM (inactive).

Q: For `COC(=O)CCCCCCC(=O)N1CC[C@@H]2[C@@H](CO)N(C)c3ccc(-c4cccc(F)c4)cc3[C@@H]21`, which IC90 is on record?
A: Its IC90 is > 50 µM (inactive).

Q: `COc1ccccc1NC(=O)N1CC[C@@H]2[C@@H](CO)N(C)c3ccc(-c4cccc(F)c4)cc3[C@@H]21` was tested. Which IC90 did it give?
A: The IC90 was > 50 µM (inactive).

Q: Which IC90 does the source give for `COc1cccc(NC(=O)N2CC[C@@H]3[C@@H](CO)N(C)c4ccc(-c5cccc(F)c5)cc4[C@@H]32)c1` here?
A: Its IC90 is > 50 µM (inactive).

Q: Which IC90 does the source give for `COc1ccc(NC(=O)N2CC[C@@H]3[C@@H](CO)N(C)c4ccc(-c5ccc(F)cc5)cc4[C@@H]32)cc1` here?
A: The IC90 was > 50 µM (inactive).

Q: With `CN1c2ccc(-c3cccc(F)c3)cc2[C@@H]2[C@@H](CCN2C(=O)c2ccc3c(c2)OCO3)[C@@H]1CO` as the compound, how does the IC90 read?
A: The IC90 was > 50 µM (inactive).

Q: `COCC(=O)N1CC[C@@H]2[C@@H](CO)N(C)c3ccc(-c4cccc(F)c4)cc3[C@@H]21` was tested. Which IC90 did it give?
A: The IC90 was > 50 µM (inactive).

Q: `CN1c2ccc(-c3cccc(F)c3)cc2[C@H]2[C@H](CCN2C(=O)c2ccc3c(c2)OCO3)[C@@H]1CO` was tested. Which IC90 did it give?
A: The IC90 was > 50 µM (inactive).

Q: With `COc1ccc(NC(=O)N2CC[C@@H]3[C@@H](CO)N(C)c4ccc(-c5cccc(F)c5)cc4[C@@H]32)cc1` as the compound, how does the IC90 read?
A: Its IC90 is > 50 µM (inactive).

Q: `CNC(=O)c1ccc(N2CCN(C(=O)c3ccc4c(c3)OCO4)CC2)cc1` was tested. Which IC90 did it give?
A: The IC90 was > 50 µM (inactive).

Q: For `CC(=O)c1ccc(N2CCN(C(=O)c3ccc4c(c3)OCO4)CC2)cc1`, which IC90 is on record?
A: The IC90 was > 50 µM (inactive).

Q: Which IC90 does the source give for `CN1c2ccc(-c3cccc(F)c3)cc2[C@H]2[C@H](CCN2C(=O)Nc2ccccc2F)[C@H]1CO` here?
A: Its IC90 is > 50 µM (inactive).

Q: `CC(=O)c1ccc(N2CCN(C(=O)c3ccccc3F)CC2)cc1` was tested. Which IC90 did it give?
A: Its IC90 is > 50 µM (inactive).

Reference: PubChem BioAssay AID743349 (Broad Institute, 2014)
